The results in this text go back to patent publication US12590134B2, “GLP-1 agonist polypeptide compound and salt thereof, synthesis method therefor and use thereof” (Sinopep-Allsino Biopharmaceutical Co., Ltd., priority 2020, dated 2026).

This experiment has as its target human GLP-1R (Homo sapiens, UniProt P43220). Put plainly: cAMP signal analysis of GLP-1R (GLP-1 receptor agonist activity). The class given is cell-based. The protocol: A wild human GLP-1R (NM_002062.5) was subjected to transient transfection and screened for two weeks by 600 μg/ml of hygromycin-B to obtain a cell line which was recombined and integrated into an FlpInCHO (Invitrogen) cell stable expression system. The culture condition of the FlpInCHO cell was as follows: 10% of heat-inactivated fetal calf serum was added to a DMEM culture solution, and the culture was performed in a 5% carbon dioxide cell incubator.
In the test, an LANCE cAMP detection kit was used for measuring the cAMP signal intensity.

Where [1] appears, read: CHO cell line stably expressing human GLP-1R, downstream cAMP signal, LANCE cAMP kit, read-out: GLP-1R EC50.

Like-named read-outs stand apart in the source and are kept apart here. Numbered stars: 1 amine (or outer) side, 2 acyl side, 3 side chain; on linkers, the order of the positions; unused ones are H or OH. Square brackets hold non-standard residues; d marks the D form. Side chains are listed from the residue outwards. Peptide text beside a SMILES is read from it. * marks the point of attachment. C18 diacid = O=C(O)CCCCCCCCCCCCCCCCC(=O)*; γGlu = O=C(O)[C@H](CCC(=O)[*:2])N[*:1]; Ac4c(3-oxa) = NC1(C(=O)O)COC1; dNva = CCC[C@@H](N)C(=O)O; dAbu = CC[C@@H](N)C(=O)O; Abu = CC[C@H](N)C(=O)O; AEEA = NCCOCCOCC(=O)O

Chain of human GLP-1R (P43220 24-463): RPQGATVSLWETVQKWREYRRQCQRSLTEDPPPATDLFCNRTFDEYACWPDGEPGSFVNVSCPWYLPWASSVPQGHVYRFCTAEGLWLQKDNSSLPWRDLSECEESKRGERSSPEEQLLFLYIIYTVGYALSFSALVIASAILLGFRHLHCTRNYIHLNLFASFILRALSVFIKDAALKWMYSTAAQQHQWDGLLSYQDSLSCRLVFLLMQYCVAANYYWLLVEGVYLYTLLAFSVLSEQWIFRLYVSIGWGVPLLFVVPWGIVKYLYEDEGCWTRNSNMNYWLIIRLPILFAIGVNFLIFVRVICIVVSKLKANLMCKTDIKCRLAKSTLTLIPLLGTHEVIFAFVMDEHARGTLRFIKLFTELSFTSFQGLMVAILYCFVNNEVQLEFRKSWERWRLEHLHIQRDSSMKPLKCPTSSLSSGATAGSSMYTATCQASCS

In the case of `CC[C@H](NC(=O)[C@H](CCC(=O)O)NC(=O)[C@H](CC(C)C)NC(=O)[C@H](Cc1ccc(O)cc1)NC(=O)[C@H](CO)NC(=O)[C@H](CO)NC(=O)[C@@H](NC(=O)[C@H](CC(=O)O)NC(=O)[C@H](CO)NC(=O)[C@@H](NC(=O)[C@H](Cc1ccccc1)NC(=O)[C@@H](NC(=O)CNC(=O)[C@H](CCC(=O)O)NC(=O)[C@H](CC)NC(=O)[C@@H](N)Cc1c[nH]cn1)[C@@H](C)O)[C@@H](C)O)C(C)C)C(=O)N[C@@H](CCC(N)=O)C(=O)N[C@@H](C)C(=O)N[C@@H](C)C(=O)N[C@@H](CCCCNC(=O)COCCOCCNC(=O)COCCOCCNC(=O)CC[C@H](NC(=O)CCCCCCCCCCCCCCCCC(=O)O)C(=O)O)C(=O)N[C@@H](CCC(=O)O)C(=O)N[C@@H](Cc1ccccc1)C(=O)N[C@H](C(=O)N[C@@H](C)C(=O)N[C@@H](Cc1c[nH]c2ccccc12)C(=O)N[C@@H](CC(C)C)C(=O)N[C@H](C(=O)N[C@@H](CCCNC(=N)N)C(=O)NCC(=O)N[C@@H](CCCNC(=N)N)C(=O)NCC(=O)O)C(C)C)[C@@H](C)CC` [NO: 7] (H-H[Abu]EGTFTSDVSSYLE[Abu]QAAK([AEEA-AEEA-γGlu-C18 diacid])EFIAWLVRGRG-OH), the EC50 (usually the concentration at which the effect is half-maximal) under setting [1] amounted to 8.8 ± 1.41 nM. For the molecule `CC[C@H](C)[C@H](NC(=O)[C@H](Cc1ccccc1)NC(=O)[C@H](CCC(=O)O)NC(=O)[C@H](CCCCNC(=O)COCCOCCNC(=O)COCCOCCNC(=O)CC[C@H](NC(=O)CCCCCCCCCCCCCCCCC(=O)O)C(=O)O)NC(=O)[C@H](C)NC(=O)[C@H](C)NC(=O)[C@H](CCC(N)=O)NC(=O)[C@@](C)(CC(F)(F)F)NC(=O)[C@H](CCC(=O)O)NC(=O)[C@H](CC(C)C)NC(=O)[C@H](Cc1ccc(O)cc1)NC(=O)[C@H](CO)NC(=O)[C@H](CO)NC(=O)[C@@H](NC(=O)[C@H](CC(=O)O)NC(=O)[C@H](CO)NC(=O)[C@@H](NC(=O)[C@H](Cc1ccccc1)NC(=O)[C@@H](NC(=O)CNC(=O)[C@H](CCC(=O)O)NC(=O)[C@@](C)(CC(F)(F)F)NC(=O)[C@@H](N)Cc1c[nH]cn1)[C@@H](C)O)[C@@H](C)O)C(C)C)C(=O)N[C@@H](C)C(=O)N[C@@H](Cc1c[nH]c2ccccc12)C(=O)N[C@@H](CC(C)C)C(=O)N[C@H](C(=O)N[C@@H](CCCNC(=N)N)C(=O)NCC(=O)N[C@@H](CCCNC(=N)N)C(=O)NCC(=O)O)C(C)C` [NO: 19], the EC50 was found to be 0.791 ± 0.0635 nM. With `CC[C@H](C)[C@H](NC(=O)[C@H](Cc1ccccc1)NC(=O)[C@H](CCC(=O)O)NC(=O)[C@H](CCCCNC(=O)COCCOCCNC(=O)COCCOCCNC(=O)CC[C@H](NC(=O)CCCCCCCCCCCCCCCCC(=O)O)C(=O)O)NC(=O)[C@H](C)NC(=O)[C@H](C)NC(=O)[C@H](CCC(N)=O)NC(=O)C1(NC(=O)[C@H](CCC(=O)O)NC(=O)[C@H](CC(C)C)NC(=O)[C@H](Cc2ccc(O)cc2)NC(=O)[C@H](CO)NC(=O)[C@H](CO)NC(=O)[C@@H](NC(=O)[C@H](CC(=O)O)NC(=O)[C@H](CO)NC(=O)[C@@H](NC(=O)[C@H](Cc2ccccc2)NC(=O)[C@@H](NC(=O)CNC(=O)[C@H](CCC(=O)O)NC(=O)C2(NC(=O)[C@@H](N)Cc3c[nH]cn3)COC2)[C@@H](C)O)[C@@H](C)O)C(C)C)COC1)C(=O)N[C@@H](C)C(=O)N[C@@H](Cc1c[nH]c2ccccc12)C(=O)N[C@@H](CC(C)C)C(=O)N[C@H](C(=O)N[C@@H](CCCNC(=N)N)C(=O)NCC(=O)N[C@@H](CCCNC(=N)N)C(=O)NCC(=O)O)C(C)C` [NO: 5] (H-H[Ac4c(3-oxa)]EGTFTSDVSSYLE[Ac4c(3-oxa)]QAAK([AEEA-AEEA-γGlu-C18 diacid])EFIAWLVRGRG-OH), under setting [1], the concentration for a half-maximal effect (EC50) came to 0.915 ± 0.126 nM. As to `CCSC[C@@H](NC(=O)[C@H](CCC(=O)O)NC(=O)[C@H](CC(C)C)NC(=O)[C@H](Cc1ccc(O)cc1)NC(=O)[C@H](CO)NC(=O)[C@H](CO)NC(=O)[C@@H](NC(=O)[C@H](CC(=O)O)NC(=O)[C@H](CO)NC(=O)[C@@H](NC(=O)[C@H](Cc1ccccc1)NC(=O)[C@@H](NC(=O)CNC(=O)[C@H](CCC(=O)O)NC(=O)[C@@H](CSCC)NC(=O)[C@@H](N)Cc1c[nH]cn1)[C@@H](C)O)[C@@H](C)O)C(C)C)C(=O)N[C@@H](CCC(N)=O)C(=O)N[C@@H](C)C(=O)N[C@@H](C)C(=O)N[C@@H](CCCCNC(=O)COCCOCCNC(=O)COCCOCCNC(=O)CC[C@H](NC(=O)CCCCCCCCCCCCCCCCC(=O)O)C(=O)O)C(=O)N[C@@H](CCC(=O)O)C(=O)N[C@@H](Cc1ccccc1)C(=O)N[C@H](C(=O)N[C@@H](C)C(=O)N[C@@H](Cc1c[nH]c2ccccc12)C(=O)N[C@@H](CC(C)C)C(=O)N[C@H](C(=O)N[C@@H](CCCNC(=N)N)C(=O)NCC(=O)N[C@@H](CCCNC(=N)N)C(=O)NCC(=O)O)C(C)C)[C@@H](C)CC` [NO: 11] (H-H[dC](Et)EGTFTSDVSSYLE[dC](Et)QAAK([AEEA-AEEA-γGlu-C18 diacid])EFIAWLVRGRG-OH), the EC50 under setting [1] came out at 8.1 ± 0.507 nM.

Regarding `CC[C@@H](NC(=O)[C@H](CCC(=O)O)NC(=O)[C@H](CC(C)C)NC(=O)[C@H](Cc1ccc(O)cc1)NC(=O)[C@H](CO)NC(=O)[C@H](CO)NC(=O)[C@@H](NC(=O)[C@H](CC(=O)O)NC(=O)[C@H](CO)NC(=O)[C@@H](NC(=O)[C@H](Cc1ccccc1)NC(=O)[C@@H](NC(=O)CNC(=O)[C@H](CCC(=O)O)NC(=O)[C@@H](CC)NC(=O)[C@@H](N)Cc1c[nH]cn1)[C@@H](C)O)[C@@H](C)O)C(C)C)C(=O)N[C@@H](CCC(N)=O)C(=O)N[C@@H](C)C(=O)N[C@@H](C)C(=O)N[C@@H](CCCCNC(=O)COCCOCCNC(=O)COCCOCCNC(=O)CC[C@H](NC(=O)CCCCCCCCCCCCCCCCC(=O)O)C(=O)O)C(=O)N[C@@H](CCC(=O)O)C(=O)N[C@@H](Cc1ccccc1)C(=O)N[C@H](C(=O)N[C@@H](C)C(=O)N[C@@H](Cc1c[nH]c2ccccc12)C(=O)N[C@@H](CC(C)C)C(=O)N[C@H](C(=O)N[C@@H](CCCNC(=N)N)C(=O)NCC(=O)N[C@@H](CCCNC(=N)N)C(=O)NCC(=O)O)C(C)C)[C@@H](C)CC` [NO: 9] (H-H[dAbu]EGTFTSDVSSYLE[dAbu]QAAK([AEEA-AEEA-γGlu-C18 diacid])EFIAWLVRGRG-OH), the concentration giving a half-maximal response (EC50) under setting [1] stood at 0.675 ± 0.067 nM. As to `CCC[C@@H](NC(=O)[C@H](CCC(=O)O)NC(=O)[C@H](CC(C)C)NC(=O)[C@H](Cc1ccc(O)cc1)NC(=O)[C@H](CO)NC(=O)[C@H](CO)NC(=O)[C@@H](NC(=O)[C@H](CC(=O)O)NC(=O)[C@H](CO)NC(=O)[C@@H](NC(=O)[C@H](Cc1ccccc1)NC(=O)[C@@H](NC(=O)CNC(=O)[C@H](CCC(=O)O)NC(=O)[C@@H](CCC)NC(=O)[C@@H](N)Cc1c[nH]cn1)[C@@H](C)O)[C@@H](C)O)C(C)C)C(=O)N[C@@H](CCC(N)=O)C(=O)N[C@@H](C)C(=O)N[C@@H](C)C(=O)N[C@@H](CCCCNC(=O)COCCOCCNC(=O)COCCOCCNC(=O)CC[C@H](NC(=O)CCCCCCCCCCCCCCCCC(=O)O)C(=O)O)C(=O)N[C@@H](CCC(=O)O)C(=O)N[C@@H](Cc1ccccc1)C(=O)N[C@H](C(=O)N[C@@H](C)C(=O)N[C@@H](Cc1c[nH]c2ccccc12)C(=O)N[C@@H](CC(C)C)C(=O)N[C@H](C(=O)N[C@@H](CCCNC(=N)N)C(=O)NCC(=O)N[C@@H](CCCNC(=N)N)C(=O)NCC(=O)O)C(C)C)[C@@H](C)CC` [NO: 15] (H-H[dNva]EGTFTSDVSSYLE[dNva]QAAK([AEEA-AEEA-γGlu-C18 diacid])EFIAWLVRGRG-OH), the EC50 under setting [1] stood at 2.9 ± 0.39 nM. For the molecule `CC[C@H](C)[C@H](NC(=O)[C@H](Cc1ccccc1)NC(=O)[C@H](CCC(=O)O)NC(=O)[C@H](CCCCNC(=O)COCCOCCNC(=O)COCCOCCNC(=O)CC[C@H](NC(=O)CCCCCCCCCCCCCCCCC(=O)O)C(=O)O)NC(=O)[C@H](C)NC(=O)[C@H](C)NC(=O)[C@H](CCC(N)=O)NC(=O)CNC(=O)[C@H](CCC(=O)O)NC(=O)[C@H](CC(C)C)NC(=O)[C@H](Cc1ccc(O)cc1)NC(=O)[C@H](CO)NC(=O)[C@H](CO)NC(=O)[C@@H](NC(=O)[C@H](CC(=O)O)NC(=O)[C@H](CO)NC(=O)[C@@H](NC(=O)[C@H](Cc1ccccc1)NC(=O)[C@@H](NC(=O)CNC(=O)[C@H](CCC(=O)O)NC(=O)[C@](C)(NC(=O)[C@@H](N)Cc1c[nH]cn1)C(F)(F)C(F)(F)F)[C@@H](C)O)[C@@H](C)O)C(C)C)C(=O)N[C@@H](C)C(=O)N[C@@H](Cc1c[nH]c2ccccc12)C(=O)N[C@@H](CC(C)C)C(=O)N[C@H](C(=O)N[C@@H](CCCNC(=N)N)C(=O)NCC(=O)N[C@@H](CCCNC(=N)N)C(=O)NCC(=O)O)C(C)C` [NO: 22], the EC50 was determined as 0.63 ± 0.0519 nM. `CC[C@H](C)[C@H](NC(=O)[C@H](Cc1ccccc1)NC(=O)[C@H](CCC(=O)O)NC(=O)[C@H](CCCCNC(=O)COCCOCCNC(=O)COCCOCCNC(=O)CC[C@H](NC(=O)CCCCCCCCCCCCCCCCC(=O)O)C(=O)O)NC(=O)[C@H](C)NC(=O)[C@H](C)NC(=O)[C@H](CCC(N)=O)NC(=O)[C@@H]1CCCN1C(=O)[C@H](CCC(=O)O)NC(=O)[C@H](CC(C)C)NC(=O)[C@H](Cc1ccc(O)cc1)NC(=O)[C@H](CO)NC(=O)[C@H](CO)NC(=O)[C@@H](NC(=O)[C@H](CC(=O)O)NC(=O)[C@H](CO)NC(=O)[C@@H](NC(=O)[C@H](Cc1ccccc1)NC(=O)[C@@H](NC(=O)CNC(=O)[C@H](CCC(=O)O)NC(=O)[C@@H]1CCCN1C(=O)[C@@H](N)Cc1c[nH]cn1)[C@@H](C)O)[C@@H](C)O)C(C)C)C(=O)N[C@@H](C)C(=O)N[C@@H](Cc1c[nH]c2ccccc12)C(=O)N[C@@H](CC(C)C)C(=O)N[C@H](C(=O)N[C@@H](CCCNC(=N)N)C(=O)NCC(=O)N[C@@H](CCCNC(=N)N)C(=O)NCC(=O)O)C(C)C` [NO: 17] showed an EC50 of 3.32 ± 0.677 nM.
